Test results from PMC7570844, “Skin Damages—Structure Activity Relationship of Benzimidazole Derivatives Bearing a 5-Membered Ring System” (Molecules, 2020).
≈ marks a conversion by molar mass, not a printed value.

How the values were obtained:
[1] = test system: HEK293T (Normal Kidney Epithelial Cells); assay: Cell proliferation inhibition, non-cancer control cells; conditions: Homo sapiens, HEK-293T
[2] = Ferric reducing antioxidant power (FRAP) test; conditions: mean ± SEM
[3] = test system: Microsporum gypseum; assay: Antidermatophyte plaque growth inhibition; type: cell-based; conditions: Nannizzia gypsea; for inhibition at 100 µg/mL: M. gypseum, '+' has no key, read-out: Percent growth inhibition
[4] = test system: human cervical carcinoma cells (HeLa); assay: Cell proliferation inhibition
[5] = test system: Candida albicans (ATCC 10231); assay: Anti-Candida albicans broth microdilution MIC
[6] = DPPH radical scavenging test; conditions: tested at 1 mg/mL; mean ± SEM
[7] = test system: herpes simplex virus-1 (KOS); assay: Antiviral activity in HEL cell cultures (CPE, MTS); type: cell-based; conditions: Human alphaherpesvirus 1, HEL cells
[8] = test system: herpes simplex virus-2 (G); assay: Antiviral activity in HEL cell cultures (CPE, MTS); type: cell-based; conditions: Human alphaherpesvirus 2; Herpes simplex virus-2, HEL cells
[9] = test system: Epidermophyton floccosum; assay: Antidermatophyte plaque growth inhibition; type: cell-based; conditions: for inhibition at 100 µg/mL: E. floccosum, '+' has no key, read-out: Percent growth inhibition
[10] = test system: M. gypseum, M. canis, T. mentagrophytes, T. tonsurans and E. floccosum; assay: Antidermatophyte activity, all five dermatophytes taken together; type: cell-based; conditions: 100 µg/mL, all five dermatophytes; read-out: Percentage of growth inhibition over the five dermatophytes
[11] = test system: Trichophyton mentagrophytes; assay: Antidermatophyte plaque growth inhibition; type: cell-based; conditions: for inhibition at 100 µg/mL: T. mentagrophytes, '+' has no key, read-out: Percent growth inhibition
[12] = test system: Microsporum canis; assay: Antidermatophyte plaque growth inhibition; type: cell-based; conditions: for inhibition at 100 µg/mL: M. canis, '+' has no key, read-out: Percent growth inhibition
[13] = test system: human embryonic lung (HEL) cell cultures
[14] = test system: Human Coronavirus (229E); assay: microbe, parasite or virus in culture; type: cell-based; conditions: HEL, read-out: Antiviral EC50
[15] = test system: HeLa cell cultures; conditions: human
[16] = test system: Coxsackie virus B4; assay: Antiviral activity in HeLa cell cultures (CPE, MTS); type: cell-based; conditions: Enterovirus B; Coxsackie virus B4, HeLa cells
[17] = UV filtering parameters of compounds in solution (MeOH, 290-400 nm)
[18] = test system: human T-lymphocyte cells (CEM); assay: Cell proliferation inhibition
[19] = test system: Adeno virus-2; assay: Antiviral activity in HEL cell cultures (CPE, MTS); type: cell-based; conditions: Adeno virus-2, HEL cells
[20] = test system: herpes simplex virus-1 TK-KOS ACVr; assay: microbe, parasite or virus in culture; type: cell-based; conditions: Human alphaherpesvirus 1, HEL, read-out: Antiviral EC50
[21] = test system: Respiratory syncytial virus; assay: microbe, parasite or virus in culture; type: cell-based; conditions: human respiratory syncytial virus, HeLa cells, read-out: Antiviral EC50
[22] = test system: vaccinia virus; assay: microbe, parasite or virus in culture; type: cell-based; conditions: Orthopoxvirus vaccinia, HEL, read-out: Antiviral EC50
[23] = test system: Trichophyton tonsurans; assay: Antidermatophyte plaque growth inhibition; type: cell-based; conditions: for inhibition at 100 µg/mL: T. tonsurans, '+' has no key, read-out: Percent growth inhibition
[24] = test system: human pancreatic carcinoma cells (Mia Paca-2); assay: Cell proliferation inhibition
[25] = test system: vesicular stomatitis virus; assay: microbe, parasite or virus in culture; type: cell-based; conditions: HeLa, read-out: Antiviral EC50
[26] = test system: human melanoma cells (SK-Mel 5); assay: Cell proliferation inhibition
[27] = Candida albicans, ATCC10231, 24 h

For `O=S(=O)(O)c1ccc2[nH]c(-c3cccs3)nc2c1` [Compound 9, 2-(thiophen-2-yl)-1H-benzimidazole-5-sulfonic Acid], the IC50 [1] was greater than 100 µM, the FRAP [2] was 82.16 ± 0.22 µmolTE/g and the inhibition at 100 µg/mL [3] was 59.8 ± 6.12%. For the same compound, the IC50 [4] was greater than 100 µM, the MIC [5, 27] was 64 µg/mL (≈ 228 µM) and the “DPPH (% Inhibition)” value [6] was 12.52 ± 0.88%. For the same compound, the EC50 [7] was greater than 100 µM, the EC50 [8] was greater than 100 µM and the inhibition at 100 µg/mL [9] was 50 ± 3.26%. It also gave a melting point greater than 250 °C, an inhibition at 100 µg/mL [10] of 50 to 79% and an inhibition at 100 µg/mL [11] of 57.3 ± 1.09%. The inhibition at 100 µg/mL [12] was 65.9 ± 3.21%, the Cytotoxic concentration [13] was greater than 100 µM and the EC50 [14] was greater than 100 µM. The Cytotoxic concentration [15] was greater than 100 µM, the EC50 [16] was greater than 100 µM and the SPF [17] was 4.72±0.17. For the same compound, the UVA/UVB [17] was 0.48, the UVAPF [17] was 1.43±0.09 and the “λc (critical wavelength)” value [17] was 339 nm. For the same compound, the IC50 [18] was 34 ± 2 µM, the EC50 [19] was greater than 100 µM and the EC50 [20] was greater than 100 µM. For the same compound, the EC50 [21] was greater than 100 µM, the EC50 [22] was greater than 100 µM and the inhibition at 100 µg/mL [23] was 50.8 ± 2.11%. It also gave an IC50 [24] of 43 ± 14 µM, an EC50 [25] greater than 100 µM and an IC50 [26] greater than 100 µM.

In the case of `OC(Cn1cncn1)(Cn1cncn1)c1ccc(F)cc1F` [Fluconazole, reference compound], the IC50 ([3]; M. gypseum growth, read-out: IC50) is reported as 18.5 ± 1.23 µg/mL (≈ 60.4 µM), the MIC ([5]; 48 h, tested 0.25-128 µg/mL, '-' = no activity) is reported as “Neither synthesized compounds nor fluconazole showed activity” and the MIC [5, 27] is reported as 0.5 µg/mL (≈ 1.63 µM). For the same compound, the IC50 ([9]; E. floccosum growth, read-out: IC50) was 0.08 ± 0.005 µg/mL (≈ 0.261 µM), the IC50 ([11]; T. mentagrophytes growth, read-out: IC50) was 3.53 ± 0.26 µg/mL (≈ 11.5 µM) and the IC50 ([12]; M. canis growth, read-out: IC50) was 29.6 ± 1.84 µg/mL (≈ 96.6 µM). It also gave an IC50 ([23]; T. tonsurans growth, read-out: IC50) of 19.4 ± 0.87 µg/mL (≈ 63.4 µM).

Compound `O=C(O)c1ccc2[nH]c(-c3cccs3)nc2c1` [Compound 15, 2-(thiophen-2-yl)-1H-benzimidazole-5-carboxylic Acid] has an IC50 [1] greater than 100 µM, an FRAP [2] of 181.84 ± 2.66 µmolTE/g and an inhibition at 100 µg/mL [3] of 2.14 ± 0.59%. For the same compound, the IC50 [4] was greater than 100 µM, the MIC [5, 27] was 16 µg/mL (≈ 65.5 µM) and the “DPPH (% Inhibition)” value [6] was 30.23 ± 1.45%. It also gave an EC50 [7] greater than 100 µM, an EC50 [8] greater than 100 µM and an inhibition at 100 µg/mL [9] of 6.45 ± 2.98%. It also gave a melting point greater than 250 °C, an inhibition at 100 µg/mL [11] of less than 0% and an inhibition at 100 µg/mL [12] of 20.3 ± 0.54%. The Cytotoxic concentration [13] was greater than 100 µM, the EC50 [14] was greater than 100 µM and the Cytotoxic concentration [15] was greater than 100 µM. It also gave an EC50 [16] greater than 100 µM, an SPF [17] of 6.40±0.12 and a UVA/UVB [17] of 0.43. For the same compound, the UVAPF [17] was 1.42±0.11, the “λc (critical wavelength)” value [17] was 342 nm and the IC50 [18] was 50 ± 10 µM. For the same compound, the EC50 [19] was greater than 100 µM, the EC50 [20] was greater than 100 µM and the EC50 [21] was greater than 100 µM. The EC50 [22] was greater than 100 µM, the inhibition at 100 µg/mL [23] was 4.48 ± 0.9% and the IC50 [24] was 80 ± 12 µM. It also gave an EC50 [25] greater than 100 µM and an IC50 [26] greater than 100 µM.
